Reference: patent EP0414533A1, “Use of iodopropargyl esters of alpha-amino acid derivatives as antimicrobial agents” (ROHM AND HAAS COMPANY, priority 1989, dated 1991)
In brackets after ≈: the same amount, converted by molar mass. Structures can show the parent of a compound that is named as a salt. Where two headings read alike, the source gives them in different places.

Columns and labels:
Aspergillus niger (ANIG) = experiment: Minimum inhibitory concentration (MIC), broth two-fold serial dilution test; type: cell-based; conditions: Aspergillus niger
[1] = tested on: Aureobasidium pullulans (APUL); experiment: as above; type: cell-based; conditions: Aureobasidium pullulans
Botrytis cinerea (BOC) = experiment: In-vitro plant fungicide test; type: cell-based; conditions: Botrytis cinerea, 25 ppm; Table IVa; *=Phytotoxic; read-out: % Control at 25 ppm BOC
Fusarium roseum (FUS) = experiment: In-vitro plant fungicide test; type: cell-based; conditions: Fusarium sambucinum, read-out: % Control at 25 ppm FUS, 25 ppm; Table IVa; *=Phytotoxic
[2] = tested on: Cochliobolus sativus (HEL); experiment: In-vitro plant fungicide test; type: cell-based; conditions: Bipolaris sorokiniana, 25 ppm; Table IVa; *=Phytotoxic; read-out: % Control at 25 ppm HEL
[3] = tested on: Phytophthora capsici (PHY); experiment: In-vitro plant fungicide test; type: cell-based; conditions: Phytophthora capsici; 25 ppm; Table IVa; read-out: % Control at 25 ppm PHY
Piricularia oryzae (PIR) = experiment: microbe, parasite or virus in culture; type: cell-based; conditions: read-out: % Control at 25 ppm PIR
Pythium ultimum (PYU) = experiment: In-vitro plant fungicide test; type: cell-based; conditions: Globisporangium ultimum; 25 ppm; Table IVa; read-out: % Control at 25 ppm PYU
Rhizoctonia solani (RHI) = experiment: In-vitro plant fungicide test; type: cell-based; conditions: Rhizoctonia solani; 25 ppm; Table IVa; read-out: % Control at 25 ppm RHI
Septoria nodorum (SEP) = experiment: In-vitro plant fungicide test; type: cell-based; conditions: Parastagonospora nodorum, 25 ppm; Table IVa; read-out: % Control at 25 ppm SEP
[4] = tested on: Xanthomonas campestris (XAN); experiment: In-vitro plant fungicide test; type: cell-based; conditions: Xanthomonas campestris; 25 ppm; Table IVa; read-out: % Control at 25 ppm XAN
THREE FUNGI = experiment: MIC test against three fungi in Mycophile Broth, pH 5.0, read after 8 days (Table VII); type: cell-based; conditions: 192 h
[5] = tested on: Pseudomonas fluorescens (PSFL); experiment: Minimum inhibitory concentration (MIC), broth two-fold serial dilution test; conditions: Pseudomonas fluorescens, read-out: MIC (G-) PSFL, M9G (minimal salts media with glucose)
[6] = tested on: Pseudomonas aerugenosa (PSAE); experiment: as above; conditions: Pseudomonas, read-out: MIC (G-) PSAE, M9G (minimal salts media with glucose)
Escherichia coli (ECOL) = experiment: as above; conditions: Escherichia coli, read-out: MIC (G-) ECOL, M9G (minimal salts media with glucose)
[7] = tested on: Staphylococcus aureus (SAUR); experiment: as above; conditions: Staphylococcus aureus, read-out: MIC (G+) SAUR, M9G (minimal salts media with glucose)
Description: When the test is ready to be done, each vessel in the dilution series, except the first vessel, contains an equal volume of compound free broth. The first vessel contains twice the volume of broth with the starting concentration of test compound. One half of the broth from the first vessel is transferred to the second vessel. After being mixed, one half the resulting volume is removed from the second vessel and transferred to the third vessel. The entire cycle is repeated sufficiently to give a series of concentrations amounting to 500, 250, 125, 63, 31, 16, 8, and 4 ppm (or 100, 50, 25, 12.5, 6.2, 3.1, 1.6, and 0.8), respectively.
Each vessel is then inoculated with a cell suspension of the appropriate test organism. Bacteria are grown in broth, fungi on agar slants for a time and at a temperature appropriate to the species being tested, and algae are a mixture of green algae and blue-green bacteria grown in a nutrient media. At the end of the growth period, in the case of bacteria, the broth is vortexed to disperse the cells.
The vessels are then incubated at the appropriate temperature. After the incubation, the vessels are examined for growth/no growth.

[8] = M9G (minimal salts media with glucose), Table IIIa, read-out: MIC (F) ANIG
[9] = M9G (minimal salts media with glucose), Table IIIa, read-out: MIC (F) APUL
[10] = Aspergillus niger, serial dilutions from 50 ppm, read after 8 days of incubation, read-out: MIC ANIG
[11] = Aureobasidium pullulans, serial dilutions from 50 ppm, read after 8 days of incubation, read-out: MIC APUL
[12] = Gloeophyllum trabeum, serial dilutions from 50 ppm, read after 8 days of incubation, read-out: MIC GTRA
[13] = read-out: MIC (F) ANIG, M9G (minimal salts media with glucose), Table IIIa
[14] = read-out: MIC (F) APUL, M9G (minimal salts media with glucose), Table IIIa
[15] = Aspergillus niger, pH 5, read-out: MIC ANIG, Aspergillus niger, serial dilutions from 50 ppm, read after 8 days of incubation
[16] = Aureobasidium pullulans, pH 5, read-out: MIC APUL, Aureobasidium pullulans, serial dilutions from 50 ppm, read after 8 days of incubation
[17] = Gloeophyllum trabeum, pH 5, read-out: MIC GTRA, Gloeophyllum trabeum, serial dilutions from 50 ppm, read after 8 days of incubation
[18] = M9G (minimal salts media with glucose), Table IIIc, iodopropargyl esters of peptides, read-out: MIC (F) ANIG
[19] = M9G (minimal salts media with glucose), Table IIIc, iodopropargyl esters of peptides, read-out: MIC (F) APUL
[20] = Table IIIc, iodopropargyl esters of peptides

Compound	inhibition of growth at 25 ppm (Botrytis cinerea (BOC)) [%]	inhibition of growth at 25 ppm (Fusarium roseum (FUS)) [%]	inhibition of growth at 25 ppm [2] [%]	inhibition of growth at 25 ppm [3] [%]	inhibition of growth at 25 ppm (Piricularia oryzae (PIR)) [%]	inhibition of growth at 25 ppm (Pythium ultimum (PYU)) [%]	inhibition of growth at 25 ppm (Rhizoctonia solani (RHI)) [%]	inhibition of growth at 25 ppm (Septoria nodorum (SEP)) [%]	inhibition of growth at 25 ppm [4] [%]	MIC (THREE FUNGI; [10]) [µg/mL]	MIC (THREE FUNGI; [11]) [µg/mL]	MIC (THREE FUNGI; [12]) [µg/mL]	MIC ([5]; Table IIIa) [µg/mL]	MIC ([6]; Table IIIa) [µg/mL]	MIC (Escherichia coli (ECOL); Table IIIa) [µg/mL]	MIC ([7]; Table IIIa) [µg/mL]	MIC (Aspergillus niger (ANIG); [18]) [µg/mL]	MIC [1, 19] [µg/mL]	MIC [5, 20] [µg/mL]	MIC [6, 20] [µg/mL]	also measured
C[C@H](NC(=O)OC(C)(C)C)C(=O)OCC#CI [Compound 2, N-t-butoxycarbonyl-L-alanine iodopropargyl ester]	100	100	100	100	100	100	100	100	0	3.2 (≈ 9.06 µM)	25 (≈ 70.8 µM)	1.6 (≈ 4.53 µM)	50	> 100	> 100	50					MIC (Aspergillus niger (ANIG); [8]): 3 µg/mL; MIC [1, 9]: 3 µg/mL
CC(C)(C)OC(=O)N[C@@H](COCc1ccccc1)C(=O)OCC#CI [Compound 3, N-t-butoxycarbonyl-O-benzyl-L-serine iodopropargyl ester]	0	100	100	100	100	100	100	100	0	25 (≈ 54.4 µM)	50 (≈ 109 µM)	3.2 (≈ 6.97 µM)	> 100	> 100	> 100	25					MIC (Aspergillus niger (ANIG); [8]): 3 µg/mL; MIC [1, 9]: < 0.8 µg/mL
N[C@@H](COCc1ccccc1)C(=O)OCC#CI [Compound 9, O-benzyl-L-serine iodopropargyl ester trifluoroacetate]	100	100	100	100	100	100	100	100	0				25	125	64	500					MIC (Aspergillus niger (ANIG); [13]): < 4 µg/mL; MIC [1, 14]: < 4 µg/mL; MIC (THREE FUNGI; [15]): 25 µg/mL; MIC (THREE FUNGI; [16]): 50 µg/mL; MIC (THREE FUNGI; [17]): 12.5 µg/mL
N[C@@H](CSCc1ccccc1)C(=O)OCC#CI [Compound 10, S-benzyl-L-cysteine iodopropargyl ester trifluoroacetate]	0	100	50	100	100	100	100	100	0				> 100	100	> 100	> 100					MIC (Aspergillus niger (ANIG); [13]): 3 µg/mL; MIC [1, 14]: 6.3 µg/mL; MIC (THREE FUNGI; [15]): 6.2 µg/mL; MIC (THREE FUNGI; [16]): 12.5 µg/mL; MIC (THREE FUNGI; [17]): 6.2 µg/mL
C[C@@H](OCc1ccccc1)[C@H](N)C(=O)OCC#CI [Compound 11, O-benzyl-L-threonine iodopropargyl ester trifluoroacetate]	0	100	95	100	100	100	100	100	0				> 100	> 100	> 100	> 100					MIC (Aspergillus niger (ANIG); [13]): 6.3 µg/mL; MIC [1, 14]: 3 µg/mL; MIC (THREE FUNGI; [15]): 25 µg/mL; MIC (THREE FUNGI; [16]): 50 µg/mL; MIC (THREE FUNGI; [17]): 12.5 µg/mL
C[C@H](NC(=O)OC(C)(C)C)C(=O)NCC(=O)OCC#CI [Compound 12, N-t-butoxycarbonyl-L-alanylglycine iodopropargyl ester]	0	0	0	100	100	100	100	95	0	25 (≈ 60.9 µM)	> 50	6.2 (≈ 15.1 µM)					6	< 0.8	50	50	MIC (Escherichia coli (ECOL); [20]): 50 µg/mL; MIC [7, 20]: 50 µg/mL
C[C@H](NC(=O)OC(C)(C)C)C(=O)N[C@@H](C)C(=O)OCC#CI [Compound 13, N-t-butoxycarbonyl-L-alanyl-L-alanine iodopropargyl ester]	50	100	100	100	100	100	100	100	0	25 (≈ 58.9 µM)	50 (≈ 118 µM)	6.2 (≈ 14.6 µM)					< 0.8	< 0.8	50	50	MIC (Escherichia coli (ECOL); [20]): 100 µg/mL; MIC [7, 20]: 50 µg/mL
C[C@H](NC(=O)OC(C)(C)C)C(=O)N[C@@H](COCc1ccccc1)C(=O)OCC#CI [Compound 14, N-t-butoxycarbonyl-L-alanyl-O-benzyl-L-serine iodopropargyl ester]	0	100	50	75	100	0	90	0	0	50 (≈ 94.3 µM)	> 50	12.5 (≈ 23.6 µM)					6	< 0.8	100	50	MIC (Escherichia coli (ECOL); [20]): > 100 µg/mL; MIC [7, 20]: 100 µg/mL
C[C@H](NC(=O)OC(C)(C)C)C(=O)N[C@@H](CSCc1ccccc1)C(=O)OCC#CI [Compound 15, N-t-butoxycarbonyl-L-alanyl-S-benzyl-L-cysteine iodopropargyl ester]	0	100	0	100	100	100	100	100	0	> 50	> 50	50 (≈ 91.5 µM)					6	1.6	> 100	> 100	MIC (Escherichia coli (ECOL); [20]): > 100 µg/mL; MIC [7, 20]: > 100 µg/mL
